Literature values in patent US11857520B2, “Therapeutic composition of intranasal lidocaine” (Nortic Holdings Inc., priority 2018, dated 2024).

system: not given; conditions: generally recognized

Compound | Maximum dose [mg/kg] | duration of action [h]
CCN(CC)CCOC(=O)c1ccc(N)cc1 [procaine] | 12 | –
COC(=O)[C@H]1[C@@H](OC(=O)c2ccccc2)C[C@@H]2CC[C@H]1N2C [cocaine] | 3 | –
CCN(CC)CCOC(=O)c1ccc(N)cc1Cl [chloroprocaine] | 12 | –
CCCCN1CCCCC1C(=O)Nc1c(C)cccc1C (centres unmarked) [bupivacaine] | 3 | –
CCCN1CCCC[C@H]1C(=O)Nc1c(C)cccc1C [ropivacaine] | 3 | –
CCN(CC)CC(=O)Nc1c(C)cccc1C [lidocaine] | 4.5 | 0.75 to 1.5
CCCNC(C)C(=O)Nc1ccccc1C (centres unmarked) [prilocaine] | 8 | –
CCCCNc1ccc(C(=O)OCCN(C)C)cc1 [tetracaine] | 3 | 1.5 to 6
Cc1cccc(C)c1NC(=O)C1CCCCN1C (centres unmarked) [mepivacaine] | 4.5 | 1 to 2

system: human retinal pigment epithelial cell; conditions: 0.225 mg/ml in triamcinolone acetonide (TA) following intravitreal injection, at 2 hours

Compound | effect on human retinal pigment epithelial cells
OCc1ccccc1 [benzyl alcohol] | caused ultrastructural damage and impaired human retinal pigment epithelial cell function

system: skin; conditions: HSDB database

Compound | level irritating to the skin [%]
OCc1ccccc1 [benzyl alcohol] | ≥ 3
